“Also recorded” adds a separate entry of the source.
Legend:
Akt, JNK, p38 = assay: Immunoblotting of activated and total Akt, JNK and p38 in lung lysates; assay type: in vivo, mice; details: CS-exposed lungs, attenuated by CS
Method: (§1) Six- to eight-week-old AKR/J male mice were divided into 3 groups. The control group was kept in a filtered air environment, and the experimental groups were subjected to CS or CS plus losartan in drinking water. CS exposure was carried out (2 hours per day, 5 days per week) by burning 2R4F reference cigarettes (University of Kentucky, […], Ky., USA) using a smoking machine (Model TE-10; Teague Enterprises) for 6 to 7 weeks. The average concentration of total suspended particulates and carbon monoxide was 90 mg/m and 350 ppm, respectively, which was monitored on a routine basis.
(§2) The AT1 selective antagonist losartan (Merck Co.) was diluted into drinking water at concentrations of 3 mg/kg (low dose) and 30 mg/kg (high dose). Panselective TGF-β-neutralizing antibody (R&D Systems) was administered by intraperitoneal injection according to published protocol (70). Isotype-matched control antibody (R&D Systems) was administered to control mice as described above.
(§3) Whole lung lysates were extracted in M-Per buffer from Pierce. Protein concentrations were determined using the Bio-Rad Protein Assay. Aliquots of 30-50 μg protein were boiled and then loaded onto Tris-HCL gels and transferred electrophoretically to nitrocellulose membranes. Membranes were incubated with the primary antibody for 1 hour at room temperature. Detection was performed by the Pierce West Dura ECL Detection System. […]

AT1 receptor = biological target: T1, AT1 receptor (Mus musculus, UniProt P29754); assay: Immunohistochemistry for the AT1 receptor in murine lungs; assay type: in vivo, mice; details: 2 months CS
T1 construct: from tissue; host or cells: fixed lung sections of AKR/J mice
T1 sequence (P29754 1-359): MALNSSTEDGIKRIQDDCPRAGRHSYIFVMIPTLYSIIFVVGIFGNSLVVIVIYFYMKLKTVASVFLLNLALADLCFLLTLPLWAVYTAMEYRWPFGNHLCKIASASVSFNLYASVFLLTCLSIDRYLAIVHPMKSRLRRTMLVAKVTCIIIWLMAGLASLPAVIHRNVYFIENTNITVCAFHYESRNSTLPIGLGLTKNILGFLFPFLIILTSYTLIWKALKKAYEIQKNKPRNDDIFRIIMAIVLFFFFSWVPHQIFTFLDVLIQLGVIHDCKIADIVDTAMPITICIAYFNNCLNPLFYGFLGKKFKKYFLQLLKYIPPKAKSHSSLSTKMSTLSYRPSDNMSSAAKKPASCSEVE
Method: as §1, §2

[1] = system: chronic CS-exposed AKR/J mice; assay: Morphometric analysis of airspace dimension and airway attachments in chronic CS-induced emphysema model; assay type: in vivo
Method: as §1, with “The control group was kept in a filtered air environment, and the experimental groups were subjected to CS or CS plus losartan in drinking water.” left out
[…] Panselective TGF-β-neutralizing antibody (R&D Systems) was administered by intraperitoneal injection according to published protocol (70). Isotype-matched control antibody (R&D Systems) was administered to control mice as described above.
Three to five mice of each genotype were studied at the noted ages. For histologic and morphometric analyses, mouse lungs were inflated at a pressure of 25 cm H2O and fixed with 4% PFA in low molecular weight agarose. […]
Mean linear intercept measurements were performed on H&E-stained sections taken at intervals throughout both lungs. […] Mean chord lengths and mean linear intercepts were assessed by automated morphometry with a macro-operation performed by Metamorph Imaging Software (Universal Imaging, Molecular Devices). Mean airway thickness was measured directly using microscope-captured images at ×40 magnification. […]

[2] = Body weight of CS- or RA-exposed mice; assay type: in vivo; details: for CS-induced weight loss: CS-exposed mice, two months treatment
Method: as §1, §2

CS-exposed lungs = assay: CS-induced injury measures by immunohistochemistry: oxidative stress, inflammatory cells, proliferation; assay type: in vivo, mice
Method: as §1, §2
Tissue sections were deparaffinized and rehydrated in an ethanol series. Sections were blocked for non-specific binding with 3% normal serum from chicken and incubated with the primary antibodies for 1 hour at room temperature. For immunofluorescence, sections were then incubated with secondary antibodies at 1:200 for 30 minutes at room temperature (Molecular Probes). Sections were counterstained with 4′,6′-diamidinio-2-phenylindole (DAPI) and mounted with Vectashield hard set mounting medium (Vector Labs). Briefly, after incubation with the primary antibody overnight at 4° C., slides were washed with PBST, incubated with an appropriate biotinylated secondary antibody (Jackson ImmunoResearch Inc.), and developed by using ABC and DAB detection reagents (Vector Laboratories). […]

[3] = system: chronic CS-exposed AKR/J mice; assay: Measurement of mouse lung mechanics; assay type: in vivo
Method: as §1
as §2, with “above. […]” for “above.”
After being connected they were paralyzed with Succinylcholine (75 mg/kg) and ventilated with a tidal volume of 0.2 mL of 100% oxygen at a rate of 150 breathes/min, with a positive end expiratory pressure (PEEP) of 3 cm H2O. […] One minute later Rrs and Ers were measured (74). […] The expression levels of target genes were determined in triplicate from the standard curve and normalized to Gapdh mRNA level.

TGF-β signaling (psmad2) = assay: Immunohistochemical staining for psmad2, a marker of TGF-β signaling, in lungs; assay type: in vivo; details: chronic CS-exposed mice
Method: as §1, §2
(§4) Tissue sections were deparaffinized and rehydrated in an ethanol series. Sections were blocked for non-specific binding with 3% normal serum from chicken and incubated with the primary antibodies for 1 hour at room temperature. For immunofluorescence, sections were then incubated with secondary antibodies at 1:200 for 30 minutes at room temperature (Molecular Probes). […]

[4] = system: alveolar epithelial apoptosis; assay: TUNEL and active caspase-3 labeling in the airspace; assay type: in vivo; details: CS-exposed mice
Method: as §1, §2, §4

[5] = system: lung gene expression pathways; assay: Expression profile analysis of whole lung RNA; assay type: in vivo, mice; details: 2 months CS plus losartan
Method: Six- to eight-week-old AKR/J male mice were divided into 3 groups. The control group was kept in a filtered air environment, and the experimental groups were subjected to CS or CS plus losartan in drinking water. CS exposure was carried out (2 hours per day, 5 days per week) by burning 2R4F reference cigarettes (University of Kentucky, […], Ky., USA) using a smoking machine (Model TE-10; Teague Enterprises) for 6 to 7 weeks. […] Panselective TGF-β-neutralizing antibody (R&D Systems) was administered by intraperitoneal injection according to published protocol (70). Isotype-matched control antibody (R&D Systems) was administered to control mice as described above. Total RNA was extracted from the designated murine lungs, six in each treatment group, using the Trizol Reagent method (Invitrogen, Carlsbad, Calif. 92008, cat. no. 15596-026). Additional purification was performed on RNAeasy columns (Qiagen, Valencia, Calif. 913555, cat. no. 74104). The quality of total RNA samples was assessed using an Agilent 2100 Bioanalyzer (Agilent Technologies, Palo Alto, Calif.). The six RNA samples from each time point were pooled into two groups comprised of three murine specimens. […] The hybridized biotinylated cRNA was detected with streptavidin-Cy3 and quantitated using Illumina's BeadStation 500GX Genetic Analysis Systems scanner. […]

elastin = assay: Elastin localization by Hart's stain; assay type: in vivo; details: CS-exposed mice
Method: as §1, §2

active TGF-β = assay: ELISA of active TGF-β in lung lysates of CS-exposed mice; assay type: in vivo; details: AKR/J and C57BL/6 mice, two weeks of CS exposure, concurrent treatment
Method: as §1, §2

[6] = system: small airways of chronic CS-exposed mice; assay: Airway histology: wall thickness, Ki67, trichrome, αSMA; assay type: in vivo
Method: Six- to eight-week-old AKR/J male mice were divided into 3 groups. The control group was kept in a filtered air environment, and the experimental groups were subjected to CS or CS plus losartan in drinking water. […] The average concentration of total suspended particulates and carbon monoxide was 90 mg/m and 350 ppm, respectively, which was monitored on a routine basis.
as §2
Mean linear intercept measurements were performed on H&E-stained sections taken at intervals throughout both lungs. Slides were coded, captured by an observer, and masked for identity for the groups. Ten to fifteen images per slide were acquired at ×20 magnification and transferred to a computer screen. Mean chord lengths and mean linear intercepts were assessed by automated morphometry with a macro-operation performed by Metamorph Imaging Software (Universal Imaging, Molecular Devices). Mean airway thickness was measured directly using microscope-captured images at ×40 magnification. Hart's staining was performed per published protocol using either van Gieson or tartrazine counterstaining (71).
Tissue sections were deparaffinized and rehydrated in an ethanol series. Sections were blocked for non-specific binding with 3% normal serum from chicken and incubated with the primary antibodies for 1 hour at room temperature. For immunofluorescence, sections were then incubated with secondary antibodies at 1:200 for 30 minutes at room temperature (Molecular Probes). Sections were counterstained with 4′,6′-diamidinio-2-phenylindole (DAPI) and mounted with Vectashield hard set mounting medium (Vector Labs). Briefly, after incubation with the primary antibody overnight at 4° C., slides were washed with PBST, incubated with an appropriate biotinylated secondary antibody (Jackson ImmunoResearch Inc.), and developed by using ABC and DAB detection reagents (Vector Laboratories). Antibodies were used at the following concentrations: Ki67 (1:50; Santa Cruz Biotechnology Inc.), nitrotyrosine (Abcam), Mac3 (BD Biosciences), CD45R (Santa Cruz Biotechnology Inc.), psmad2 (Cell Signaling Technology), TUNEL (1:25; Abcam), JNK/pJNK (Cell Signaling Technology), Akt/pAkt (Cell Signaling Technology), LAP— TGF-β1 (R&D Systems), CTGF (Abcam), Angiotensin type 1 receptor (Santa Cruz Biotechnology Inc.), and active caspase-3 (Abcam).

MMP12 = assay: Western blot analysis of MMP12 expression in lung lysates; assay type: in vivo; details: CS-exposed mice
Method: as §1, §2, §3

MMP9 = assay: Zymography of lung extracts; assay type: in vivo; details: CS-exposed mice
Method: as §1, §2

Q: With CCCCc1nc(Cl)c(CO)n1Cc1ccc(-c2ccccc2-c2nn[nH]n2)cc1 [losartan] as the compound, how does the “JNK and p38 activation” value (Akt, JNK, p38) read?
A: The value was “only Akt activation was normalized”.

Q: What about the “AT1 staining in the airspace walls” value (AT1 receptor) of the same compound?
A: Its value is “normalized”.

Q: And the “airspace dimension (mean linear intercept)” value ([1]; 2 months CS, concurrent treatment (losartan 0.6 or 1.2 g/l in drinking water; antibody 10 mg/kg/wk))?
A: Its value is “marked reduction in the airspace dimension; also recorded: attenuate destructive airspace enlargement”.

Q: And the “airway alveolar attachments, a measure of airspace destruction” value ([1]; CS-exposed)?
A: Its value is “recovery with losartan treatment”.

Q: What about the CS-induced weight loss [2] of the same compound?
A: The CS-induced weight loss was “not improved”.

Q: What about the CS-induced weight loss ([2]; listed as Losartan) of the same compound?
A: The CS-induced weight loss was “does not rescue CS-induced weight loss”.

Q: What about the “body weight of RA-exposed mice” value ([2]; room air-exposed mice) of the same compound?
A: Its value is “did not alter body weight”.

Q: What about the “inflammatory cell infiltration (alveolar macrophage and lymphocyte numbers)” value (CS-exposed lungs; AKR/J mice, CS-exposed lungs) of the same compound?
A: Its value is “reduced inflammatory cell infiltration”.

Q: And the “oxidative stress (nitrotyrosine and 8-deoxyguanine immunostaining)” value (CS-exposed lungs; AKR/J mice, CS-exposed lungs)?
A: The value was “normalized oxidative stress”.

Q: And the “airspace epithelial cell proliferation reduced by CS” value (CS-exposed lungs; CS-exposed mice)?
A: Its value is “did not normalize”.

Q: What about the lung elastance [3] of the same compound?
A: Its lung elastance is “normalized”.

Q: What about the “lung size (total lung capacity)” value [3] of the same compound?
A: Its value is “normalized”.

Q: What about the “TGF-β signaling (phosphorylated smad2 in alveolar and airway epithelium)” value (TGF-β signaling (psmad2)) of the same compound?
A: The value was “normalized with losartan treatment; also recorded: inhibit chronic CS-induced TGF-β signaling in the lung”.

Q: And the “TUNEL labeling in the airspace” value [4]?
A: The value was “attenuated”.

Q: What about the “active caspase-3 labeling in the airspace” value [4] of the same compound?
A: The value was “attenuated”.

Q: And the “oxidoreductase, B cell receptor signaling, chemokine signaling, and cytokine receptor interaction pathways (induced with CS)” value [5]?
A: The value was “repressed with losartan treatment”.

Q: What about the “stress response and MAPK pathway genes (downregulated with CS)” value [5] of the same compound?
A: The value was “induced with losartan treatment”.

Q: What about the “elastin fragmentation in the airspaces” value (elastin) of the same compound?
A: Its value is “improved with losartan treatment”.

Q: And the “active TGF-β in lung lysates by ELISA” value (active TGF-β)?
A: Its value is “normalized TGF-β in both strains”.

Q: And the “airway epithelial thickening (airway mucosal thickness)” value ([6]; 2 months CS, small airways of similar size)?
A: The value was “normalized”.

Q: And the “airway epithelial proliferation (Ki67 staining)” value ([6]; CS-exposed mice)?
A: The value was “trend toward reduction”.

Q: And the “density and abundance of αSMA-producing smooth muscle cells surrounding the small airways” value ([6]; data not shown)?
A: Its value is “not changed”.

Q: And the “peribronchiolar collagen deposition (trichrome)” value ([6]; mice exposed to 3 months of CS)?
A: Its value is “normalized collagen deposition”.

Q: And the “MMP12 expression in the lungs” value (MMP12)?
A: The value was “normalized”.

Q: What about the MMP9 activation (MMP9) of the same compound?
A: Its MMP9 activation is “normalized”.
